Tests used:
Assay type in all cases: cell-based
Pseudomonas aeruginosa = assay: MIC against Gram-negative bacteria: Pseudomonas aeruginosa; settings: 5×10^5 CFU/mL
Protocol: (§1) 1. Gram-negative bacteria, such as E. coli BL21, Pseudomonas aeruginosa, Klebsiella pneumonia, Enterobacter cloacae, Aeromonas hydrophila, Citrobacter diversus, Moraxella catarrhalis, Proteus mirabilis, Proteus vulgaris, Serratia marcescens, etc were streaked on solid LB medium and cultured respectively. Then, typical clones were picked, inoculated into common liquid LB medium respectively, and cultured at 37° C. with shaking at 185 rpm until the McFarland specific turbidity was 0.5. The bacterial culture of each of Gram-negative bacteria was centrifuged at 4000×g for 3 min, the supernatant was discarded, and the thalli were resuspended with fresh LB medium.
(§2) 2. The above-mentioned bacterial suspensions were diluted and inoculated into 96-well plates with the final concentration of the bacterial suspension being 5×10^5 CFU/mL per well.
(§3) 3. Each of the purified human-originated EGF domain proteins (PRT1 to PRT1498 in Table 1) was added to each of the above wells and subjected to two-fold serial dilution in concentration. Three parallel wells were set up for each concentration in the gradient.
(§4) 4. The above-mentioned 96-well plates were placed and cultured at 37° C. in shaking incubator shaking at 175 rpm. […] The minimal inhibitory concentration MIC is defined as the lowest concentration of the recombinant protein at which there is no growth of the bacteria.

Moraxella catarrhalis = assay: MIC against Gram-negative bacteria: Moraxella catarrhalis; settings: 5×10^5 CFU/mL
Protocol: as §1, §2, §3, §4

Proteus mirabilis = assay: MIC against Gram-negative bacteria: Proteus mirabilis; settings: 5×10^5 CFU/mL
Protocol: as §1, §2, §3, §4

Proteus vulgaris = assay: MIC against Gram-negative bacteria: Proteus vulgaris; settings: 5×10^5 CFU/mL
Protocol: as §1, §2, §3, §4

E. coli DH5α = assay: Antibacterial activity: MIC and growth curve against E. coli DH5α in 96-well plate; settings: minimal inhibitory concentration against E. coli DH5α; 96-well plate, 5×10^5 CFU/mL, 37° C., judged after 8 h
Protocol: 1. E. coli DH5α was exemplified. E. coli DH5α was streaked and cultured on LB solid medium. Then, a typical clone was picked and inoculated into common LB liquid medium, cultured at 37° C. with shaking at 185 rpm until the logarithmic growth phase was reached (OD600 of about 0.5). The bacterial culture was centrifuged at 4000×g for 3 min, the supernatant was discarded, and the thalli were resuspended with fresh LB medium.
2. The above-mentioned bacterial suspension was diluted and inoculated into a 96-well plate with the total volume of 100 μL per well and a bacterial count of 5×10^5 CFU/mL.
3. The recombinant protein hF VII-EGF1 was added to the above-mentioned wells with the final protein concentration in the well of the highest protein concentration being 50 μg/mL. Basing on this final concentration, a two-fold serial dilution was performed till a protein concentration gradient consisting of 50, 25, and 12.5 μg/mL was set up. Three parallel wells were set up for each concentration in the gradient.
4. The above-mentioned 96-well plate was placed and cultured at 37° C. in shaking incubator shaking at 175 rpm. Samples were taken every 30 min, the absorbance values were determined at 600 nm wavelength under a ultra violet spectrophotometer, and an inhibition curve was plotted. […] The minimal inhibitory concentration MIC is defined as the lowest concentration of the recombinant protein at which there is no growth of the bacteria.
According to the experimental procedures in Example 14, the minimal inhibitory concentrations (MIC, μg/mL) of the other human-originated EGF domain proteins (PRT2 to PRT1498 in Table 1) for E. coli DH5α were determined.

Enterobacter cloacae = assay: MIC against Gram-negative bacteria: Enterobacter cloacae; settings: 5×10^5 CFU/mL
Protocol: as §1, §2, §3, §4

Klebsiella pneumonia = assay: MIC against Gram-negative bacteria: Klebsiella pneumonia; settings: 5×10^5 CFU/mL
Protocol: as §1, §2, §3, §4

Aeromonas hydrophila = assay: MIC against Gram-negative bacteria: Aeromonas hydrophila; settings: 5×10^5 CFU/mL
Protocol: as §1, §2, §3, §4

Serratia marcescens = assay: MIC against Gram-negative bacteria: Serratia marcescens; settings: 5×10^5 CFU/mL
Protocol: as §1, §2, §3, §4

E. coli BL21 = assay: MIC against Gram-negative bacteria: E. coli BL21; settings: 5×10^5 CFU/mL
Protocol: as §1, §2, §3, §4

Citrobacter diversus = assay: MIC against Gram-negative bacteria: Citrobacter diversus; settings: 5×10^5 CFU/mL
Protocol: as §1, §2, §3, §4

[1] = P. aeruginosa, 10 h cultivation at 37° C.
[2] = M. catarrhalis, 10 h cultivation at 37° C.
[3] = P. mirabilis, 10 h cultivation at 37° C.
[4] = P. vulgaris, 10 h cultivation at 37° C.
[5] = E. cloacae, 10 h cultivation at 37° C.
[6] = K. pneumonia, 10 h cultivation at 37° C.
[7] = A. hydrophila, 10 h cultivation at 37° C.
[8] = S. marcescens, 10 h cultivation at 37° C.
[9] = E. coli BL21, 10 h cultivation at 37° C.
[10] = C. diversus, 10 h cultivation at 37° C.
[11] = Pseudomonas aeruginosa, 96-well plate, 37° C., 10 h
[12] = Moraxella catarrhalis, 96-well plate, 37° C., 10 h
[13] = Proteus mirabilis, 96-well plate, 37° C., 10 h
[14] = Proteus vulgaris, 96-well plate, 37° C., 10 h
[15] = Enterobacter cloacae, 96-well plate, 37° C., 10 h
[16] = Klebsiella pneumonia, 96-well plate, 37° C., 10 h
[17] = Aeromonas hydrophila, 96-well plate, 37° C., 10 h
[18] = Serratia marcescens, 96-well plate, 37° C., 10 h
[19] = E. coli BL21, 96-well plate, 37° C., 10 h
[20] = Citrobacter diversus, 96-well plate, 37° C., 10 h
[21] = 10 h cultivation at 37° C., two-fold serial dilution

Substance | MIC (μg/mL) P. aeruginosa (Pseudomonas aeruginosa; [1]) | MIC (μg/mL) M. catarrhalis (Moraxella catarrhalis; [2]) | MIC (μg/mL) P. mirabilis (Proteus mirabilis; [3]) | MIC (μg/mL) P. vulgaris (Proteus vulgaris; [4]) | MIC (E. coli DH5α) | MIC (μg/mL) E. cloacae (Enterobacter cloacae; [5]) | MIC (μg/mL) K. pneumonia (Klebsiella pneumonia; [6]) | MIC (μg/mL) A. hydrophila (Aeromonas hydrophila; [7]) | MIC (μg/mL) S. marcescens (Serratia marcescens; [8]) | MIC (μg/mL) E. coli BL21 (E. coli BL21; [9]) | MIC (μg/mL) C. diversus (Citrobacter diversus; [10]) | also measured
PRT174 (CASSPCANGGTCRDGVNDFSCTCPPGYTGRNC; listed as Homo sapiens) | 25 µg/mL | 50 µg/mL | 12.5 µg/mL | 50 µg/mL | 50 µg/mL | 25 µg/mL | 50 µg/mL | 12.5 µg/mL | 12.5 µg/mL | 12.5 µg/mL | 25 µg/mL | 
PRT870 (CECFGHSNRCSYIDLLNTVICVSCKHNTRGQHCELCRLGYFRNASAQLDDENVCIE; listed as Homo sapiens) | 100 µg/mL | 50 µg/mL | 25 µg/mL | 12.5 µg/mL | 12.5 µg/mL | 25 µg/mL | 50 µg/mL | 12.5 µg/mL | 50 µg/mL | 50 µg/mL | 25 µg/mL | 
PRT131 (AGHCSTYGHLCRNGGRCREKRRGVTCDCAFSAYDGPFCS; listed as Homo sapiens) |  |  |  |  | 50 µg/mL |  |  |  |  |  |  | MIC (μg/mL) P. aeruginosa (Pseudomonas aeruginosa; [11]): 12.5 µg/mL; MIC (μg/mL) M. catarrhalis (Moraxella catarrhalis; [12]): 25 µg/mL; MIC (μg/mL) P. mirabilis (Proteus mirabilis; [13]): 100 µg/mL; MIC (μg/mL) P. vulgaris (Proteus vulgaris; [14]): 25 µg/mL; MIC (μg/mL) E. cloacae (Enterobacter cloacae; [15]): 12.5 µg/mL; MIC (μg/mL) K. pneumonia (Klebsiella pneumonia; [16]): 12.5 µg/mL; MIC (μg/mL) A. hydrophila (Aeromonas hydrophila; [17]): 12.5 µg/mL; MIC (μg/mL) S. marcescens (Serratia marcescens; [18]): 12.5 µg/mL; MIC (μg/mL) E. coli BL21 (E. coli BL21; [19]): 12.5 µg/mL; MIC (μg/mL) C. diversus (Citrobacter diversus; [20]): 12.5 µg/mL
PRT1044 (FGQDCAETCDCAPDARCFPANGACLCEHGFTGDRCT; listed as Homo sapiens) |  |  |  |  | 100 µg/mL |  |  |  |  |  |  | MIC P. aeruginosa (Pseudomonas aeruginosa; [21]): 50 µg/mL; MIC M. catarrhalis (Moraxella catarrhalis; [21]): 25 µg/mL; MIC P. mirabilis (Proteus mirabilis; [21]): 12.5 µg/mL; MIC P. vulgaris (Proteus vulgaris; [21]): 25 µg/mL; MIC E. cloacae (Enterobacter cloacae; [21]): 50 µg/mL; MIC K. pneumonia (Klebsiella pneumonia; [21]): 12.5 µg/mL; MIC A. hydrophila (Aeromonas hydrophila; [21]): 50 µg/mL; MIC S. marcescens (Serratia marcescens; [21]): 50 µg/mL; MIC E. coli BL21 (E. coli BL21; [21]): 50 µg/mL; MIC C. diversus (Citrobacter diversus; [21]): 50 µg/mL
PRT887 (LNDACISNPCNEGSNCDTNPVNGKAICTCPSGYTGPACS; listed as Homo sapiens) | 12.5 µg/mL | 25 µg/mL | 50 µg/mL | 12.5 µg/mL | 12.5 µg/mL | 50 µg/mL | 25 µg/mL | 25 µg/mL | 50 µg/mL | 25 µg/mL | 12.5 µg/mL | 
PRT62 (ASGDCVPSPCHNGGTCLEEEEGVRCLCLPGYGGDLCD; listed as Homo sapiens) |  |  |  |  | 12.5 µg/mL |  |  |  |  |  |  | MIC (μg/mL) P. aeruginosa (Pseudomonas aeruginosa; [11]): 12.5 µg/mL; MIC (μg/mL) M. catarrhalis (Moraxella catarrhalis; [12]): 25 µg/mL; MIC (μg/mL) P. mirabilis (Proteus mirabilis; [13]): 12.5 µg/mL; MIC (μg/mL) P. vulgaris (Proteus vulgaris; [14]): 12.5 µg/mL; MIC (μg/mL) E. cloacae (Enterobacter cloacae; [15]): 12.5 µg/mL; MIC (μg/mL) K. pneumonia (Klebsiella pneumonia; [16]): 12.5 µg/mL; MIC (μg/mL) A. hydrophila (Aeromonas hydrophila; [17]): 25 µg/mL; MIC (μg/mL) S. marcescens (Serratia marcescens; [18]): 25 µg/mL; MIC (μg/mL) E. coli BL21 (E. coli BL21; [19]): 100 µg/mL; MIC (μg/mL) C. diversus (Citrobacter diversus; [20]): 12.5 µg/mL
PRT872 (CKCNLHANLCSMREGSLQCECEHNTTGPDCGKCKKNFRTRSWRAGSYLPLPHGSPNACAT; listed as Homo sapiens) | 25 µg/mL | 50 µg/mL | 12.5 µg/mL | 50 µg/mL | 25 µg/mL | 25 µg/mL | 12.5 µg/mL | 50 µg/mL | 25 µg/mL | 50 µg/mL | 12.5 µg/mL | 
PRT1282 (SLDSCSSGPCENGGTCHAQEGEDAPFTCSCPTGFEGPTCG; listed as Homo sapiens) |  |  |  |  | 12.5 µg/mL |  |  |  |  |  |  | MIC against P. aeruginosa (Pseudomonas aeruginosa; [11]): 12.5 µg/mL; MIC against M. catarrhalis (Moraxella catarrhalis; [12]): 25 µg/mL; MIC against P. mirabilis (Proteus mirabilis; [13]): 12.5 µg/mL; MIC against P. vulgaris (Proteus vulgaris; [14]): 25 µg/mL; MIC against E. cloacae (Enterobacter cloacae; [15]): 25 µg/mL; MIC against K. pneumonia (Klebsiella pneumonia; [16]): 50 µg/mL; MIC against A. hydrophila (Aeromonas hydrophila; [17]): 12.5 µg/mL; MIC against S. marcescens (Serratia marcescens; [18]): 50 µg/mL; MIC against E. coli BL21 (E. coli BL21; [19]): 50 µg/mL; MIC against C. diversus (Citrobacter diversus; [20]): 50 µg/mL
